The results in this text go back to PubChem BioAssay AID686998 (Broad Institute, 2013).

Where “and” joins values, the source holds several entries; their conditions need not be identical. Equal values may be shown once. Results filed as inconclusive are left out. Calls of active or inactive are those of the source.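 How the source made its calls: active means falling signal with fitted half-maximal potency no higher than twice the top valid tested dose; inconclusive means poor fit quality, or flat fit spanning -70% to -30%; inactive means potency over limit, rising signal, or flat fit inside 30%.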

For this assay, the system named is Cryptococcus neoformans growth, Alamar Blue, 24 h. In words: Cryptococcus neoformans growth inhibition, dose response, Alamar Blue, cherry-picks (AID 686998).
For orientation: IC50 means the concentration needed to halve the response being measured. Regarding `COC(=O)C1=C(C)N(Cc2ccc(Br)cc2)C(=S)NC1c1cccc(Cl)c1` (stereo unspecified), the half-inhibitory concentration (IC50) was 5.98 µM.

`COC(=O)C1=C(C)N(Cc2ccccc2)C(=S)NC1c1cccc(Br)c1` (stereo unspecified): the IC50 was 6.55 µM and 8.35 µM.

Turning to `NC(=S)N/N=C/c1ccc(-c2cc(Cl)ccc2Cl)o1`, the IC50 is 4.48 µM.

Take `C[C@@H]1CN([C@@H](C)CO)S(=O)(=O)c2ccc(C3=CCCC3)cc2O[C@@H]1CN(C)Cc1ccccc1F`: the IC50 was 31.3 µM.

Consider `CCOC(=O)CNC(=O)CSc1ncnc2c1cnn2-c1ccc(Cl)cc1`, for which the IC50 was 67.1 µM.

With `CC(C)CC#Cc1cnc2c(c1)C(=O)N([C@@H](C)CO)C[C@H](C)[C@H](CN(C)C(=O)c1ccc3c(c1)OCO3)O2`, the IC50 was 5.12 µM.

Turning to `Cc1ccccc1-n1ncc2c(SCC(=O)NCc3cccs3)ncnc21`, the IC50 was 23.4 µM.

With `COC(=O)C1=C(C)N(Cc2ccc(Br)cc2)C(=S)NC1c1ccc(OC)cc1` (stereo unspecified), the IC50 was 26 µM and 32.8 µM.

With `S=C(Nc1cccc(Cl)c1)Nc1ccccc1Oc1ccccc1`, the IC50 was 13.2 µM.

Take `COc1cccc(CNC(=O)COc2ccc(C(=O)c3ccccc3)cc2)c1`: the IC50 was 21 µM.

As for `C[C@H](CO)N1C[C@H](C)[C@@H](CN(C)Cc2ccc(Oc3ccccc3)cc2)Oc2ccc(NC(=O)Nc3ccc4c(c3)OCO4)cc2C1=O`, the IC50 is > 70 µM (inactive).

Regarding `COC(=O)C1=C(C)N(CC(C)C)C(=S)NC1c1ccc(-c2ccccc2)cc1` (stereo unspecified), the IC50 was 3.78 µM and 3.99 µM.

Regarding `COC(=O)C1=C(C)N(Cc2ccccc2)C(=S)N[C@H]1c1ccc(Br)cc1`, the IC50 was 4.51 µM.

`COCCN1C(=O)CCC1(C)C(=O)Nc1c(C)cccc1C` (stereo unspecified): the IC50 is 30.2 µM.

On to `CCOc1ccc(CNC(=S)NCc2ccc(OCC)cc2)cc1`, for which the IC50 is 8.87 µM.

Regarding `CC[C@H](C)[C@@H]1NC(=O)CNC(=O)c2csc(n2)[C@H](C(C)(C)O)OC(=O)C(C)(C)[C@H](CCCC(C)(Cl)Cl)OC(=O)c2csc1n2`, the half-inhibitory concentration (IC50) is 2.16 µM.

For the compound `Cc1ccccc1S(=O)(=O)N[C@@H]1CC[C@H](CCNS(=O)(=O)c2cccc(F)c2)O[C@H]1CO`, the IC50 was > 70 µM (inactive).

Consider `C[C@H]1CN([C@@H](C)CO)C(=O)c2cc(C#CC3(O)CCCC3)cnc2O[C@@H]1CN(C)Cc1cccnc1`, for which the IC50 is > 70 µM (inactive).

Regarding `Cc1c(C(=O)NC(=S)Nc2ccccc2N2CCCC2)cccc1[N+](=O)[O-]`, the 50% inhibitory concentration (IC50) is 2.71 µM.

In the case of `C[C@@H]1CN([C@H](C)CO)C(=O)Cc2cc(NC(=O)NC3CCCCC3)ccc2O[C@@H]1CN(C)Cc1ccccc1`, the IC50 is > 70 µM (inactive).

As to `COc1ccc(NC(=O)CN2CCN(S(=O)(=O)c3ccc(C(C)C)cc3)CC2)cc1OC`, the IC50 was 43.7 µM.

Take `CCCC[C@@H]1CNC(=S)N1CCc1cccc(F)c1`: the IC50 is 1.29 µM.

For `O=C(COc1ccc2c(c1)CCC2)NCc1ccc(Cl)cc1`, the IC50 is 34.2 µM.

With `C[C@H](CO)N1C[C@H](C)[C@H](CN(C)Cc2ccccc2F)Oc2cc(C3=CCCC3)ccc2S1(=O)=O`, the IC50 was 36.3 µM.

Turning to `CCCCN1C(=S)NC[C@@H]1Cc1ccccc1`, the IC50 was 20.9 µM.

As for `CCCNC(=O)[C@H]1[C@H](CO)[C@H]2Cn3c(cccc3=O)[C@@H]1N2C(=O)Nc1cc(F)ccc1F`, the IC50 was 68.5 µM.

With `COc1cc(CO)cc(I)c1O[C@H]1C=C(C(=O)NCCO)C[C@@H](N(CC2CCCCC2)C(=O)c2cc3ccccc3oc2=O)[C@@H]1O`, the concentration for half-maximal inhibition (IC50) is 0.479 µM.

`COC(=O)C1=C(C)N(Cc2ccc(F)cc2)C(=S)NC1c1cccc(Br)c1` (stereo unspecified): the IC50 is 6.82 µM.

Regarding `O=C(NC(=S)NCC1COc2ccccc2O1)c1ccc(Cl)cc1` (stereo unspecified), the IC50 is 6.31 µM.

For the compound `Cc1ccc2nc(C)c3c(c2c1)OC(C(C)(Cl)Br)C3` (stereo unspecified), the 50% inhibitory concentration (IC50) is 19 µM.

For `O=C(C[C@H]1CC[C@@H]2[C@H](COC[C@H](O)CN2CC2CCOCC2)O1)NCc1ccc(Cl)cc1`, the IC50 is 70 µM.

In the case of `COC(=O)C1=C(C)N(Cc2ccc(Cl)cc2)C(=S)NC1c1ccccc1` (stereo unspecified), the IC50 was 10.8 µM.

Regarding `Fc1ccccc1CNC(=S)NCc1ccc(Cl)cc1`, the IC50 is 12.8 µM.

Take `CCC(C)c1ccc(NC(=S)N2CCN(c3ccccn3)CC2)cc1` (stereo unspecified): the IC50 is 17.5 µM.

With `COC(=O)C1=C(C)N(Cc2ccccc2)C(=S)NC1c1ccc(Br)cc1` (stereo unspecified), the half-maximal inhibitory concentration (IC50) is 10.2 µM.

Turning to `O=C(C[C@@H]1C=C[C@@H](NC(=O)Nc2cc(F)ccc2F)[C@H](CO)O1)NCCCN1CCOCC1`, the concentration for half-maximal inhibition (IC50) is 68.3 µM.

Take `CO[C@@H]1CN(C)C(=O)c2ccc(NS(=O)(=O)c3ccc(Oc4ccccc4)cc3)cc2OC[C@H](C)NC[C@H]1C`: the IC50 is 3.78 µM.

With `O=C(C[C@H]1CC[C@H]2[C@@H](COC[C@H](O)CN2C(=O)Nc2ccc3c(c2)OCO3)O1)N1CCN(c2ccccc2)CC1`, the IC50 was > 70 µM (inactive).

In the case of `COc1ccc(C(=O)NC(=S)Nc2ccccc2N2CCOCC2)cc1[N+](=O)[O-]`, the IC50 was 26.1 µM.

In the case of `O=C(NC(=S)Nc1ccccc1N1CCOCC1)c1ccc(Br)cc1`, the IC50 is 6.23 µM.

As to `Cc1ccc(S(=O)(=O)N2CC[C@@H]3[C@H](CO)Nc4ccc(-c5ccccc5F)cc4[C@@H]32)cc1`, the IC50 was 0.997 µM.

Turning to `COC(=O)C1=C(C)N(Cc2ccc(F)cc2)C(=S)NC1c1ccc(F)cc1` (stereo unspecified), the IC50 was 22.7 µM.

For `CC(C)c1ccc(OCC(=O)NC(C)c2ccccc2)cc1` (stereo unspecified), the IC50 is 49.5 µM.

For the compound `C/C=C/c1ccc([C@@H]2[C@@H](C#N)N(S(=O)(=O)c3cccc(F)c3)[C@@H]2CO)cc1`, the IC50 was 33.6 µM.

`C[C@@H]1CN([C@H](C)CO)C(=O)CCCn2nncc2CO[C@H]1CN(C)Cc1cccc(C(F)(F)F)c1`: the IC50 was 4.17 µM.

`CC12CC3CC(C)(C1)CC(C(=O)NC(=S)N1CCCCC1)(C3)C2`: the IC50 was 15.5 µM.

As to `COc1ccc(C(=O)NC(=S)Nc2ccccc2N2CCCCC2)cc1[N+](=O)[O-]`, the IC50 was 1.49 µM.

With `CNC[C@@H]1Oc2ccc(NS(=O)(=O)c3ccc(Cl)cc3)cc2C(=O)N([C@H](C)CO)C[C@H]1C`, the IC50 is 46.4 µM.

`CC(NC(=O)COc1ccccc1C(C)(C)C)c1ccccc1` (stereo unspecified): the IC50 was 3.83 µM.

Take `CO[C@H]1CN(C)C(=O)c2ccc(NC(=O)NC(C)C)cc2OC[C@@H](C)NC[C@H]1C`: the IC50 is 1.08 µM.

Consider `COC(=O)C1=C(C)N(CC(C)C)C(=S)NC1c1cccc(F)c1` (stereo unspecified), for which the IC50 is 23.8 µM and 46.8 µM.

Take `O=C(CCN1CCCCC1)NCC[C@@H]1CC[C@H](NC(=O)c2ccc(F)cc2)[C@@H](CO)O1`: the IC50 is > 70 µM (inactive).

As to `CC(=O)N1[C@H](CO)[C@H](c2ccc(-c3ccccc3)cc2)[C@@H]1CNC(=O)C1CC1`, the 50% inhibitory concentration (IC50) was 4.92 µM.

With `COc1cccc(NC(=O)CN2CCN(S(=O)(=O)c3ccc(C(C)C)cc3)CC2)c1`, the IC50 was > 70 µM (inactive).

On to `CCCCNC(=S)N/N=C/c1ccc(C#N)cc1`, for which the IC50 was 2.73 µM.

Regarding `COc1ccc(CN(C)C[C@@H]2Oc3ccc(NC(=O)C4CC4)cc3C(=O)N([C@@H](C)CO)C[C@H]2C)cc1`, the IC50 was 43.2 µM.

`COC(=O)C1=C(C)N(Cc2ccc(Br)cc2)C(=S)NC1c1ccccc1` (stereo unspecified): the IC50 was 13.1 µM.

Turning to `COC(=O)C1=C(C)N(Cc2ccccc2)C(=S)N[C@H]1c1cccc(F)c1`, the IC50 is 13.7 µM.

Turning to `Cc1ccc(C2CC(c3cccs3)=NN2C(=O)c2ccc(Br)o2)cc1` (stereo unspecified), the concentration for half-maximal inhibition (IC50) is 0.375 µM.

Consider `CO[C@@H]1CN(C)C(=O)c2ccc(NC(C)=O)cc2OC[C@@H](C)N(C(=O)Cc2cccnc2)C[C@H]1C`, for which the IC50 is > 60 µM (inactive).

On to `Cc1ccc(OCCn2c(=S)[nH]c3ccccc32)c(C(C)C)c1`, for which the IC50 was 0.913 µM.
